System: C57BL/6 mice
Assay: Warm renal ischemia/reperfusion, 30 minutes ischemia (Example 2)
Type: in vivo
Details: mean±SEM, n=6, 1 day after 30 min ischemia/reperfusion
Protocol: Nine Experimental groups were used as follows: • 1) Sham-operated mice sacrificed 1 day after surgery, n=6, • 2) PBS-vehicle-treated mice 15 min before ischemia/1 day reperfusion, n=6, • 3) Isotype control antibody 10 mg/kg-treated mice 15 minutes before ischemia/1 day reperfusion, n=6 (The isotype control antibody is mouse IgG1 isotype control purchased from RnD systems (catalogue number MAB002), this isotype control antibody having binding specificity for Keyhole Limpet Hemocyanin (KLH) antigen), • 4) OPN301 anti-TLR2 monoclonal antibody 10 mg/kg-treated mice 15 minutes before ischemia/1 day reperfusion, n=6, • 5) Pargyline 6 mg/kg-treated mice 15 minutes before ischemia/1 day reperfusion, n=6, • 6) PBS-vehicle-treated mice 15 minutes before ischemia/5 days reperfusion, n=6, • 7) Isotype control antibody (RnD systems catalogue number MAB002) 10 mg/kg-treated mice 15 minutes before ischemia/5 days reperfusion, n=6, • 8) OPN301 anti-TLR2 antibody 10 mg/kg-treated mice 15 minutes before ischemia/5 days reperfusion, n=6, • 9) Pargyline 6 mg/kg-treated mice 15 minutes before ischemia/5 days reperfusion, n=6. Experimental Warm Renal Ischemia/Reperfusion
Warm renal ischemia/reperfusion (I/R) experiments were adapted from a previous study (Stokman et al, 2005). Briefly, a wild type strain of C57BL/6 mice were anesthetized with 10 μl/g of a mix of 2.5 ml ketamine (Ketalar 50 mg/ml, Centravet; Lapalisse, France), 0.5 ml xylazine (Rompun 2.5%, Centravet; Lapalisse, France), and 7 ml NaCl 0.9% (Centravet; Lapalisse, France). During surgery, animals were set on a 35° C. hotplate. After a 2 millimeters incision, the jugular vein was exposed for intravenous injection (insulin syringe; VWR, Fontenay-sous-Bois, France) of 300 μl (1 min infusion) of the considered treatment. The incision was closed after haemostasis (5/0 Ethicrin thread, Ethicon; Auneau, France). Three centimetre in length abdominal cutaneous and muscular incisions were performed; renal pedicles were exposed and clamped for 30 minutes using microaneurysm clamps (AREX; Palaiseau, France). […]

C#CCN(C)Cc1ccccc1 [Pargyline]
MDA level (lipid peroxidation) (PBS-vehicle 0.082±0.004): 0.051±0.002 nmol/mg proteins | MPO activity (neutrophil accumulation in renal tissue) (PBS-vehicle 63.2±9.55): 53.48±5.34 U MPO/mg protein | F4/80-positive staining (macrophage infiltration) (treated 15 min before ischemia (antibodies 10 mg/kg, pargyline 6 mg/kg), PBS-vehicle 3.24±0.21): 1.39±0.15%
